Series [1] in a line: association constant of methane in the cucurbituril. The format is binding. To be noted: relative to decamethylcucurbit[5]uril.
A short description of series [2]: solubility in water. The format is physicochemical. The note with it: compared with unsubstituted cucurbit[6]uril.
The nature of series [3]: association constant of dioxane in the cucurbituril. The format is binding. The note with it: relative to tetramethylcucurbit[2,4]uril.

For the substance dimethylcucurbit[1,4]uril, the “association constant of methane” value in series [1] is reported as “three times higher”.

In the case of α, δ-tetramethylcucurbit[2,4]uril, in series [2], the solubility in water result is “greater solubility in water than unsubstituted cucurbit[6]uril”. unsubstituted cucurbit[6]uril: the “association constant of dioxane” value in series [3] is “two times higher”.

Source of the values: patent publication US7501523B2, “Method for preparing cucurbiturils” (NewSouth Innovations Pty Limited, priority 2003, dated 2009).
